target: T1, USP28 (His-tagged USP28-FL-mammalian) (Homo sapiens, UniProt Q96RU2); assay: Ubiquitin-Rhodamine 110 Assay for USP28 Activity, Example A-1(a); format: biochemical; conditions: Ubiquitin-Rhodamine 110 assay, Example A-1(a); read-out: USP28 A-1(a) IC50 range
T1 construct: Expression of USP28 (1-1077)-TEV-6*His (pTT5 vector); made in house; host or cells: Expi293f cells (pTT5 vector)
T1 sequence (Q96RU2 1-1077): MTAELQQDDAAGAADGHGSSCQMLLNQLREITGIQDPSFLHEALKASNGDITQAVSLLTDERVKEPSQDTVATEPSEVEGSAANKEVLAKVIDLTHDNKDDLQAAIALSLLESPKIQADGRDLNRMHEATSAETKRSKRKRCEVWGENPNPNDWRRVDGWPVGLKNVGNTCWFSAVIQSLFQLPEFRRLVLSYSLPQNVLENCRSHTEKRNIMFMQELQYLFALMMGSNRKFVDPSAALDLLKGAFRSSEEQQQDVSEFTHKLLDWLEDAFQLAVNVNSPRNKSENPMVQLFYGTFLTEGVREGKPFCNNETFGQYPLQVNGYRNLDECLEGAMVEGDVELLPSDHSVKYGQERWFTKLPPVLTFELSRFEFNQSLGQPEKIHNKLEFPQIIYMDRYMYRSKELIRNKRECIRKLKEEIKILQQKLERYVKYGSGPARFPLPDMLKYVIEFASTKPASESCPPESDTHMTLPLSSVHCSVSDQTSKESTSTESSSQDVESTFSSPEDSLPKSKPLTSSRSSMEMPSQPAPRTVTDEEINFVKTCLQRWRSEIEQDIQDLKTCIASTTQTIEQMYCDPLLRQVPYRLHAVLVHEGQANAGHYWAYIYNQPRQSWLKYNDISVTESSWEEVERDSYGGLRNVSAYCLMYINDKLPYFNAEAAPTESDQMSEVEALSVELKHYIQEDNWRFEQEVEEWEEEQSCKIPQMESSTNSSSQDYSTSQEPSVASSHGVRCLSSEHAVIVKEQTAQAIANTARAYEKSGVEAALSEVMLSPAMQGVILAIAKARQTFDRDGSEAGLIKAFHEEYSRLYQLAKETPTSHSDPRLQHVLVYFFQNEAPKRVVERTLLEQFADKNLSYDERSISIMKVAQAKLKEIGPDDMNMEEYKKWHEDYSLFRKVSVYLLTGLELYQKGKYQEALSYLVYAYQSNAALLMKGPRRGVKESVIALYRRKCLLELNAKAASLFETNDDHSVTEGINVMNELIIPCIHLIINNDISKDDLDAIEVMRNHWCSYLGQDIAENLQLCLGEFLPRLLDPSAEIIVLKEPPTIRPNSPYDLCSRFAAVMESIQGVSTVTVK
Summary of the method: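 Full-length His-tagged USP28 (1-1077, Expi293F-expressed; […]) was preincubated 30 min with compound (25 μM–1.3 nM, 10-point 3-fold) in 20 mM Tris-HCl pH 8.0, 3 mM BME, 0.03% BGG, 0.01% Triton X-100. Ub-Rh110 (25 nM) was then added for 45 min at room temperature, stopped with citric acid, and read by fluorescence (485/535 nm).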

Question: For CO[C@H]1CN(c2ccc3c(n2)CC[C@H](NC(=O)c2sc4nc(C)cnc4c2N)C3)C[C@@H]1NC(C)=O [Example 266, 7-amino-N-[(6S)-2-[(3S,4S)-3-acetamido-4-methoxypyrrolidin-1-yl]-5,6,7,8-tetrahydroquinolin-6-yl]-3-methylthieno[2,3-b]pyrazine-6-carboxamide], which IC50 is on record?
Answer: 200 to 2000 nM

Question: Which IC50 does the source give for Cc1ccc2c(N)c(C(=O)N[C@H]3COc4cc(N5C[C@@H](N)[C@@]6(CCCO6)C5)ccc4C3)sc2n1 [Example 308, 3-amino-N-[(3R)-7-[(5R,9R)-9-amino-1-oxa-7-azaspiro[4.4]nonan-7-yl]-3,4-dihydro-2H-1-benzopyran-3-yl]-6-methylthieno[2,3-b]pyridine-2-carboxamide] here?
Answer: 50 to 200 nM

Question: COC[C@@H]1CN(c2ccc3c(n2)CC[C@H](NC(=O)c2sc4nc(C)cc(C)c4c2N)C3)C[C@@H]1N [Example 296, 3-amino-N-[(6S)-2-[(3R,4R)-3-amino-4-(methoxymethyl)pyrrolidin-1-yl]-5,6,7,8-tetrahydroquinolin-6-yl]-4,6-dimethylthieno[2,3-b]pyridine-2-carboxamide-] was tested. Which IC50 did it give?
Answer: 50 to 200 nM

Question: How did the IC50 turn out when CO[C@H]1CN(c2ccc3c(n2)CC[C@H](NC(=O)c2sc4nc(C)cc(C)c4c2N)C3)C[C@@H]1NC(C)=O [Example 293, 3-amino-N-[(6S)-2-[(3S,4S)-3-acetamido-4-methoxypyrrolidin-1-yl]-5,6,7,8-tetrahydroquinolin-6-yl]-4,6-dimethylthieno[2,3-b]pyridine-2-carboxamide] was run?
Answer: 50 to 200 nM

Question: For Cc1ccc2c(N)c(C(=O)N[C@H]3COc4cc(N5CC[C@@H](N)C5)ccc4C3)sc2n1 [Example 288, 3-amino-N-[(3R)-7-[(3R)-3-aminopyrrolidin-1-yl]-3,4-dihydro-2H-1-benzopyran-3-yl]-6-methylthieno[2,3-b]pyridine-2-carboxamide], which IC50 is on record?
Answer: 1 to 50 nM

Question: For COC[C@H]1CN(c2ccc3c(n2)CC[C@H](NC(=O)c2sc4nc(C)ccc4c2N)C3)C[C@@H]1N [Example 327, 3-amino-N-[(6S)-2-[(3R,4S)-3-amino-4-(methoxymethyl)pyrrolidin-1-yl]-5,6,7,8-tetrahydroquinolin-6-yl]-6-methylthieno[2,3-b]pyridine-2-carboxamide], which IC50 is on record?
Answer: 50 to 200 nM

Question: With Cc1ccc2c(N)c(C(=O)N[C@H]3COc4cc(N5C[C@@H](F)[C@@H](N)C5)ccc4C3)sc2n1 (single isomer, unassigned) [Example 3-6] as the compound, how does the IC50 read?
Answer: 1 to 50 nM

Question: Which IC50 does the source give for CO[C@@]1(C)CN(c2ccc3c(n2)OC[C@H](NC(=O)c2sc4nc(C)ccc4c2N)C3)C[C@@H]1N [Example 325, 3-amino-N-[(3R)-7-[(3S,4S)-4-amino-3-methoxy-3-methylpyrrolidin-1-yl]-2H,3H,4H-pyrano[2,3-b]pyridin-3-yl]-6-methylthieno[2,3-b]pyridine-2-carboxamide] here?
Answer: 50 to 200 nM

Question: With CO[C@@]12CNC[C@@H]1CN(c1ccc3c(c1)OC[C@H](NC(=O)c1sc4nc(C)ccc4c1N)C3)C2 [Example 292, N-[(3R)-7-[(3aR,6aR)-3a-methoxy-octahydropyrrolo[3,4-c]pyrrol-2-yl]-3,4-dihydro-2H-1-benzopyran-3-yl]-3-amino-6-methylthieno[2,3-b]pyridine-2-carboxamide] as the compound, how does the IC50 read?
Answer: 1 to 50 nM

Question: COC[C@H]1CN(c2nc3c(cc2F)C[C@H](NC(=O)c2sc4nc(C)ccc4c2N)CC3)C[C@H]1N (single isomer, unassigned) [Example 303] was tested. Which IC50 did it give?
Answer: 200 to 2000 nM

Question: For CO[C@H]1[C@H](N)CN(c2ccc3c(c2)OC[C@H](NC(=O)c2sc4nc(C)ccc4c2N)C3)[C@@H]1C [Example 284, 3-amino-N-[(3R)-7-[(2R,3S,4R)-4-amino-3-methoxy-2-methylpyrrolidin-1-yl]-3,4-dihydro-2H-1-benzopyran-3-yl]-6-methylthieno[2,3-b]pyridine-2-carboxamide], which IC50 is on record?
Answer: 1 to 50 nM

Question: For CO[C@@H]1CCN(c2ccc3c(c2)OC[C@H](NC(=O)c2sc4nc(C)cc(C)c4c2N)C3)C[C@H]1N [Example 318, 3-amino-N-[(3R)-7-[(3R,4R)-3-amino-4-methoxypiperidin-1-yl]-3,4-dihydro-2H-1-benzopyran-3-yl]-4,6-dimethylthieno[2,3-b]pyridine-2-carboxamide], which IC50 is on record?
Answer: 1 to 50 nM

Question: How did the IC50 turn out when Cc1ccc2c(N)c(C(=O)N[C@H]3CCc4nc(N5C[C@H]6NCCC(F)(F)[C@H]6C5)ccc4C3)sc2n1 [Example 329, N-[(6S)-2-[(4aS,7aS)-4,4-difluoro-octahydro-1H-pyrrolo[3,4-b]pyridin-6-yl]-5,6,7,8-tetrahydroquinolin-6-yl]-3-amino-6-methylthieno[2,3-b]pyridine-2-carboxamide] was run?
Answer: 50 to 200 nM

Question: With Cc1ccc2c(N)c(C(=O)N[C@H]3COc4cc(N5C[C@H](N)[C@@]6(CCCO6)C5)ccc4C3)sc2n1 [Example 310, 3-amino-N-[(3R)-7-[(5R,9S)-9-amino-1-oxa-7-azaspiro[4.4]nonan-7-yl]-3,4-dihydro-2H-1-benzopyran-3-yl]-6-methylthieno[2,3-b]pyridine-2-carboxamide] as the compound, how does the IC50 read?
Answer: 1 to 50 nM

Question: How did the IC50 turn out when CO[C@H]1CN(c2ccc3c(c2)OC[C@H](NC(=O)c2sc4nc(C)ccc4c2N)C3)[C@@H](C)[C@@H]1N [Example 333, 3-amino-N-[(3R)-7-[(2S,3S,4S)-3-amino-4-methoxy-2-methylpyrrolidin-1-yl]-3,4-dihydro-2H-1-benzopyran-3-yl]-6-methylthieno[2,3-b]pyridine-2-carboxamide] was run?
Answer: 1 to 50 nM

Question: With CO[C@@H]1CN(c2ccc3c(c2)OC[C@H](NC(=O)c2sc4nc(C)ccc4c2N)C3)[C@H](C)[C@H]1N [Example 335, 3-amino-N-[(3R)-7-[(2R,3R,4R)-3-amino-4-methoxy-2-methylpyrrolidin-1-yl]-3,4-dihydro-2H-1-benzopyran-3-yl]-6-methylthieno[2,3-b]pyridine-2-carboxamide] as the compound, how does the IC50 read?
Answer: 1 to 50 nM

Question: For Cc1ccc2c(N)c(C(=O)N[C@H]3CCc4nc(N5C[C@@H]6NCCC(F)(F)[C@@H]6C5)ccc4C3)sc2n1 [Example 330, N-[(6S)-2-[(4aR,7aR)-4,4-difluoro-octahydro-1H-pyrrolo[3,4-b]pyridin-6-yl]-5,6,7,8-tetrahydroquinolin-6-yl]-3-amino-6-methylthieno[2,3-b]pyridine-2-carboxamide], which IC50 is on record?
Answer: 50 to 200 nM

Question: For Cc1ccc2c(N)c(C(=O)N[C@H]3COc4cc(N5C[C@@H](N)[C@]6(CCCO6)C5)ccc4C3)sc2n1 [Example 309, 3-amino-N-[(3R)-7-[(5S,9R)-9-amino-1-oxa-7-azaspiro[4.4]nonan-7-yl]-3,4-dihydro-2H-1-benzopyran-3-yl]-6-methylthieno[2,3-b]pyridine-2-carboxamide], which IC50 is on record?
Answer: 1 to 50 nM

Question: With Cc1ccc2c(N)c(C(=O)N[C@H]3COc4cc(N5C[C@H](N)[C@]6(CCO6)C5)ccc4C3)sc2n1 [Example 340, 3-amino-N-[(3R)-7-[(4S,8S)-8-amino-1-oxa-6-azaspiro[3.4]octan-6-yl]-3,4-dihydro-2H-1-benzopyran-3-yl]-6-methylthieno[2,3-b]pyridine-2-carboxamide] as the compound, how does the IC50 read?
Answer: 1 to 50 nM

Question: Which IC50 does the source give for COC[C@H]1CN(c2cc(F)c3c(c2F)OC[C@H](NC(=O)c2sc4nc(C)cc(C)c4c2N)C3)C[C@H]1N [Example 278, 3-amino-N-[(3R)-7-[(3S,4S)-3-amino-4-(methoxymethyl)pyrrolidin-1-yl]-5,8-difluoro-3,4-dihydro-2H-1-benzopyran-3-yl]-4,6-dimethylthieno[2,3-b]pyridine-2-carboxamide] here?
Answer: 1 to 50 nM

Question: For CCOC1CN(c2ccc3c(c2)OC[C@H](NC(=O)c2sc4nc(C)cc(C)c4c2N)C3)C[C@@H]1N (stereo in doubt) [Example 323, 3-amino-N-[(3R)-7-[(3S,4R)-3-amino-4-ethoxypyrrolidin-1-yl]-3,4-dihydro-2H-1-benzopyran-3-yl]-4,6-dimethylthieno[2,3-b]pyridine-2-carboxamide], which IC50 is on record?
Answer: 1 to 50 nM

Question: With COC[C@]1(C)CN(c2ccc3c(n2)CC[C@H](NC(=O)c2sc4nc(C)ccc4c2N)C3)C[C@@H]1N [Example 342, 3-amino-N-[(6S)-2-[(3R,4R)-4-amino-3-(methoxymethyl)-3-methylpyrrolidin-1-yl]-5,6,7,8-tetrahydroquinolin-6-yl]-6-methylthieno[2,3-b]pyridine-2-carboxamide] as the compound, how does the IC50 read?
Answer: 50 to 200 nM

Reference: patent publication US11524966B1 (Valo Early Discovery, Inc., priority 2017, dated 2022)
